For test [1], the target named is human calcitonin receptor (CTR) and RAMP3 (AMY3) (Homo sapiens, UniProt O60896+P30988). Nature of the test: Amylin Receptor cAMP Assay II. The format is cell-based. The note with it: COS-7/AMY3 cells, cAMP dynamic 2 kit, read-out: Amylin Receptor cAMP Stimulation Activity: EC50. The text has this: Amylin Receptor cAMPAssay II
AMYRs are heterodimers of the class B calcitonin (CT) G-protein-coupled receptor (CTR) and receptor activity-modifying proteins (RAMPs). All three RAMPs can interact with the CTR and form AMY1, AMY2, AMY3 with RAMP1, RAMP2 and RAMP3, respectively. Like other class B1 GPCRs, the CT receptor family is canonically coupled to Gs-mediated cAMP production, and measurement of cAMP accumulation has been the primary assay used to determine peptide selectivity and potency.
(§1) To optimize functional activity directed toward Gas coupling, COS-7 cells were stably transfected with human calcitonin receptor (CTR) and RAMP3, simultaneously. 100×concentration of compound working solutions were prepared with 4-fold serial dilution in 384-well Echo LDV plate (Labcyte, Cat #LP-0200-BC). 200 nL/well 100×concentration of compound working solutions were moved to 384-well white microplate (Perkin Elmer, Cat #6007680) using Labcyte ECHO550. […] cells/mL COS-7/AMY3 cell suspensions prepared with assay buffer [HBSS containing 20 mM HEPES (Gibco, Cat #15630-080), 0.5 mM IBMX (Sigma, Cat #15879) and 0.1% Casein (Sigma, Cat #C4765)], 20 μL cell suspensions were added to each well of previous generated assay plate which already contains 200 nL compound at 100×concentration using ThermoFisher Multidrop Combi (2000 cells/well). Seal the plate and incubate at 37° C. with 5% CO2 for 30 min.
After incubation, the cAMP assay signal was generated using cAMP dynamic 2 kit (Revvity, Cat #62AM4PEC). 10 μL cAMP-d2 working solution was added to each well, followed by 10 μL Anti-cAMP antibody-cryptate working solution which was added to each well using CERTUS FLEX LIQUID DISPENSER The samples were then incubated at room temperature for 1 hour protected from light. the fluorescence was read at 665 and 615 nm with Reader PerkinElmer EnVision 2105.

Test [2] concerns the target T1, human calcitonin receptor (CTR) (Homo sapiens, UniProt P30988).
T1 construct: expressed in transfected cells; host or cells: COS-7 (COS7-human CTR Clone #2)
T1 sequence (P30988 25-474): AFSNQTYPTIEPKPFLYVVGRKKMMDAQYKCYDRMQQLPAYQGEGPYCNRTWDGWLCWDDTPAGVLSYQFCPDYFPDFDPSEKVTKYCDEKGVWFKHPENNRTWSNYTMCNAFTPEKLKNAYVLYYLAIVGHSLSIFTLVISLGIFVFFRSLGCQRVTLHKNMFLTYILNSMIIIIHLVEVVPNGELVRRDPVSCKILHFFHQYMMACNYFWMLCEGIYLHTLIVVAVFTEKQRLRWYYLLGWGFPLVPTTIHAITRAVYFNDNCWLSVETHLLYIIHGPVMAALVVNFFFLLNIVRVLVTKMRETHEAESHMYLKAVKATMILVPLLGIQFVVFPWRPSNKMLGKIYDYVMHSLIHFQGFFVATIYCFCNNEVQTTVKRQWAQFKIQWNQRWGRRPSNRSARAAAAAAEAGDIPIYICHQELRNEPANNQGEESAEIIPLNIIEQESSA
Description: Calcitonin receptor (CTR) cAMP Assay. The note with it: COS7-human CTR Clone #2 cells, cAMP dynamic 2 kit; read-out: Calcitonin Receptor cAMP Stimulation Activity: EC50. The format is cell-based.
Description: Calcitonin receptor (CTR) cAMPAssay
The calcitonin receptor (CTR) belongs to the subfamily of GPCRs known as the secretin or ‘B’ family of GPCRs. Like other class B1 GPCRs, the CT receptor family is canonically coupled to Gs-mediated cAMP production, and measurement of cAMP accumulation has been the primary assay used to determine peptide selectivity and potency.
as §1, with “to create COS7-human CTR Clone #2 stable cell line. 100× concentration” for “and RAMP3, simultaneously. 100×concentration”, “COS7-human CTR Clone #2” for “COS-7/AMY3”
After incubation, the cAMP assay signal was generated using cAMP dynamic 2 kit (Revvity, Cat #62AM4PEC). […] cAMP-d2 working solution was added to each well, followed by 10 μL Anti-cAMP antibody-cryptate working solution which was added to each well using CERTUS FLEX LIQUID DISPENSER The samples were then incubated at room temperature for 1 hour protected from light. the fluorescence was read at 665 and 615 nm with Reader PerkinElmer EnVision 2105.

These results are taken from patent US20250051355A1, “COMPOUNDS, COMPOSITIONS, AND METHODS” (ACONCAGUA BIO, INC., priority 2023, published 2025).

One may read the EC50 as the concentration needed to bring the measured effect to its halfway point.

human calcitonin receptor (CTR) and RAMP3 (AMY3), sequence (O60896 24-148, one chain of several): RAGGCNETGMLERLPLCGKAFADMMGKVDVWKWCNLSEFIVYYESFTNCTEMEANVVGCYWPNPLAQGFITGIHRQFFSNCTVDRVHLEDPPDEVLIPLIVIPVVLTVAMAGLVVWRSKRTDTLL

Take `Cc1nnc(-c2c(CCC3CCOCC3)nc3c(c2-c2cnc4c(ccn4Cc4ccc(C#N)cn4)c2)S(=O)(=O)CC3C(C)C)o1` (stereo not drawn) [Compound 128, 6-[(5-(3-isopropyl-6-(5-methyl-1,3,4-oxadiazol-2-yl)-1,1-dioxo-5-[2-(tetrahydro-2H-pyran-4-yl)ethyl]-1-thia-4-aza-7-indanyl}-1H-1,7-diazainden-1-yl)methyl]nicotinonitrile]: the values for the EC50 in test [1] and in test [2] were 1540 nM and 120 nM, respectively.

For `COc1cccc2c1CC[C@H]2Nc1nccc2cc(-c3c(-c4nnc(C)o4)c(CCC4CCOCC4)nc4c3S(=O)(=O)N3CCC[C@@H]43)sc12` [Compound 84, [(R)-4-methoxy-1-indanyl](2-((2S)-10-(5-methyl-1,3,4-oxadiazol-2-yl)-7,7-dioxo-11-[2-(tetrahydro-2H-pyran-4-yl)ethyl]-7λ^6-thia-6,12-diazatricyclo[6.4.0.0^2,6]dodeca-1(12),8,10-trien-9-yl}-1-thia-6-aza-7-indenyl)amine], the values for the EC50 in test [1] and in test [2] were 91.6 nM and 7.4 nM, respectively.

Take `Cc1nnc(-c2c(CCC3CCOCC3)nc3c(c2-c2ccc4c(cnn4C(C)c4ccc(C#N)c(F)c4)c2)C(=O)N2CCOC[C@@H]32)o1` (stereo partly drawn) [Compound 111, 4-[1-(5-((4aR)-7-(5-methyl-1,3,4-oxadiazol-2-yl)-9-oxo-6-[2-(tetrahydro-2H-pyran-4-yl)ethyl]-1,2,4,4a-tetrahydro-9H-3-oxa-5,9a-diazafluoren-8-yl}-1H-indazol-1-yl)ethyl]-2-fluorobenzonitrile]: the EC50 was determined as 155 nM in test [1] and 11.3 nM in test [2].

For the compound `Cc1nnc(-c2c(CCC3CCOCC3)nc3c(c2-c2cc4ccnc(NCc5ccc(C#N)c(F)n5)c4s2)S(=O)(=O)CC3C(C)C)o1` (stereo not drawn) [Compound 134, 2-fluoro-6-[(2-(3-isopropyl-6-(5-methyl-1,3,4-oxadiazol-2-yl)-1,1-dioxo-5-[2-(tetrahydro-2H-pyran-4-yl)ethyl]-1-2-thia-4-aza-7-indanyl}-1-thia-6-aza-7-indenylamino)methyl]nicotinonitrile], the 50% effective concentration (EC50) in test [1] came to 1490 nM; in test [2], 235 nM.

With `Cc1nnc(-c2c(CCC3CCOC(C)(C)C3)nc3c(c2-c2cc4ncnc(N[C@@H]5CCc6ncccc65)c4s2)S(=O)(=O)CC3C(C)C)o1` (stereo partly drawn) [Compound 108, N—(R)-4-aza-1-indanyl(2-(5-[2-(2,2-dimethyltetrahydro-2H-pyran-4-yl)ethyl]-3-isopropyl-6-(5-methyl-1,3,4-oxadiazol-2-yl)-1,1-dioxo-1λ^6-thia-4-aza-7-indanyl}-1-thia-4,6-diaza-7-indenyl)amine], the values for the EC50 in test [1] and in test [2] were 462 nM and 42.1 nM, respectively.

Regarding `Cc1nnc(-c2c(CCC3CCOCC3)nc3c(c2-c2ccc4c(c2)oc(=O)n4Cc2ccc(C#N)cn2)S(=O)(=O)CC3C(C)C)o1` (stereo not drawn) [Compound 129, 6-[(6-(3-isopropyl-6-(5-methyl-1,3,4-oxadiazol-2-yl)-1,1-dioxo-5-[2-(tetrahydro-2H-pyran-4-yl)ethyl]-1λ^6-thia-4-aza-7-indanyl}-2-oxo-1,3-benzoxazol-3-yl)methyl]nicotinonitrile], the values for the half-maximal effective concentration (EC50) in test [1] and in test [2] were 211 nM and 4.46 nM, respectively.

Take `Cc1cnc(-c2c(CCC34CCC(CC3)OC4)nc3c(c2-c2ccc4c(c2)OCC(=O)N4Cc2ccc(F)cn2)c(=O)n2n3CCC2)o1` [Compound 157, 9-(4-[(5-fluoro-2-pyridyl)methyl]-3-oxo-2,4-dihydro-1,4-benzoxazin-7-yl}-10-(5-methyl-1,3-oxazol-2-yl)-11-(2-(2-oxabicyclo[2.2.2]oct-4-yl)ethyl}-2,6,12-triazatricyclo[6.4.0.0^2,6]dodeca-1(12),8,10-trien-7-one]: the EC50 in test [1] amounted to 270 nM; in test [2], 9.64 nM.

Turning to `Cc1nnc(-c2c(CCC3CCOCC3)nc3c(c2-c2ccc4c(c2)oc(=O)n4Cc2ccc(C#N)c(F)c2)C(=O)N2CCOCC32O)o1` (stereo not drawn) [Compound 135, 4-[(6-(4a-hydroxy-7-(5-methyl-1,3,4-oxadiazol-2-yl)-9-oxo-6-[2-(tetrahydro-2H-pyran-4-yl)ethyl]-1,2,4,4a-tetrahydro-9H-3-oxa-5,9a-diazafluoren-8-yl}-2-oxo-1,3-benzoxazol-3-yl)methyl]-2-fluorobenzonitrile], the EC50 in test [1] turned out to be 166 nM; in test [2] it was 5.38 nM.

With `Cc1nnc(-c2c(CCC3CC(C)OC(C)C3)nc3c(c2-c2cc4ncnc(N[C@@H]5CCc6ncccc65)c4s2)S(=O)(=O)CC3C(C)C)o1` (stereo partly drawn) [Compound 98, N—(R)-4-aza-1-indanyl(2-(5-[2-(2,6-dimethyltetrahydro-2H-pyran-4-yl)ethyl]-3-isopropyl-6-(5-methyl-1,3,4-oxadiazol-2-yl)-1,1-dioxo-1λ^8-thia-4-aza-7-indanyl}-1-thia-4,6-diaza-7-indenyl)amine], the EC50 worked out at 352 nM in test [1] and 39.2 nM in test [2].

Turning to `Cc1cc(-c2c(CCC3CCOCC3)nc3c(c2-c2ccc4c(c2)oc(=O)n4Cc2ccc(C#N)cn2)S(=O)(=O)N2CCC[C@@H]32)ccn1` [Compound 145, 6-[(6-((2S)-10-(2-methyl-4-pyridyl)-7,7-dioxo-11-[2-(tetrahydro-2H-pyran-4-yl)ethyl]-7λ^6-thia-6,12-diazatricyclo[6.4.0.0^2,6]dodeca-1(12),8,10-trien-9-yl}-2-oxo-1,3-benzoxazol-3-yl)methyl]nicotinonitrile], the 50% effective concentration (EC50) in test [1] came out at 78.8 nM; in test [2] it was 6.17 nM.

As for `Cc1nnc(-c2c(CCc3ccc(F)cc3)nc3c(c2-c2ccc4c(c2)oc(=O)n4C(C)c2ccc(C#N)c(F)c2)c(=O)n2n3CCC2)o1` (stereo not drawn) [Compound 140, 2-fluoro-4-[1-(6-(11-[2-(p-fluorophenyl)ethyl]-10-(5-methyl-1,3,4-oxadiazol-2-yl)-7-oxo-2,6,12-triazatricyclo[6.4.0.0^2,6]dodeca-1(12),8,10-trien-9-yl}-2-oxo-1,3-benzoxazol-3-yl)ethyl]benzonitrile], the results for the EC50 in test [1] and in test [2] were 8.8 nM and 0.336 nM, respectively.

As to `Cc1nnc(-c2c(CCC3C4COCC34)nc3c(c2-c2cc4ccnc(N[C@@H]5CCc6ncccc65)c4s2)S(=O)(=O)CC3C(C)C)o1` (stereo partly drawn) [Compound 115, N—(R)-4-aza-1-indanyl(2-[3-isopropyl-6-(5-methyl-1,3,4-oxadiazol-2-yl)-5-(2-(3-oxabicyclo[3.1.0]hex-6-yl)ethyl}-1,1-dioxo-1λ^6-thia-4-aza-7-indanyl]-1-thia-6-aza-7-indenyl}amine], the concentration for a half-maximal effect (EC50) in test [1] came to 305 nM; in test [2], 14.5 nM.
